Assay results as given in PubChem BioAssay AID2060905 (Molecular Pharmacology Branch, DTP, NCI, 2025).

Test system: 282377-053-R-J1-PDC complex spheroid viability
Assay: Anticancer human tumor 282377-053-R-J1-PDC patient-derived colon adenocarcinoma cell line growth inhibition [RAS]
Details: for IC50: curve of first compound; for viability, T/C: stronger effect = lower value; active means viability on the fitted dose curve at most 10% of control; inactive means the rest
Text: RAS pathway inhibitors in Combinations in Complex Spheroids
A high-throughput screen of multi-cell type tumor spheroids was designed to identify active combinations of RAS pathway inhibitors and targeted small molecules. Complex spheroids include a stromal component modeled by human endothelial cells (HUVEC) and fibroblasts modeled by human mesenchymal stem cells (MSCs). The concentration ranges selected for each drug and investigational agent were based upon clinically achievable concentrations if the clinical Cmax of the agent was known.
Compounds. The drugs and investigational agents: abemaciclib (NSC768073), cobimetinib (NSC768068), divarasib (GDC6063, NSC841802), docetaxel (NSC628503), GDC-1971 (RLY-1971, NSC841576), gemcitabine (NSC613327), inavolisib (NSC800729), ipatasertib (NSC767898), KB-0742 (NSC834161), MRTX-1133 (NSC836407), osimertinib (NSC779217), RMC-4630 (NSC839698), RMC-6236 (NSC851965), RMC-6291 (NSC852671), Ro-3306 (NSC812927), sapanisertib (NSC764658), SN-38 (NSC673596), staurosporine (NSC755774), SY5609 (NSC837396), and tovorafenib (DAY101, NSC766906), were obtained from the National Cancer Institute (NCI) Developmental Therapeutics Program Chemical Repository. The FDA-approved anticancer drug set is available from the NCI Developmental Therapeutics Program. […] The stock solutions were prepared in dimethyl sulfoxide (DMSO, Sigma-Aldrich, St. Louis, MO, cat. D2650) at 800-fold the tested concentration and stored at -70 degrees C prior to their use. All drugs and investigational agents were tested over a range starting from a high concentration at or near the clinical Cmax and decreasing in half-log increments. If the clinical Cmax for an agent had not been determined, the highest concentration tested was 10 microM.
Cell Culture. All cells were maintained in an incubator at 37 degrees C and 5% CO2 with 95% humidity. The PDC lines were cultured according to standard operating procedures established by the NCI PDMR. All PDCs were thawed and cultured in Matrigel-coated flasks prepared with a working solution of 1X Ham's F-12 nutrient mix, without supplementation (Invitrogen, Waltham, MA, cat. 11765054), 100 U/mL penicillin-streptomycin (Invitrogen, cat. 15140122), and 2.5% Matrigel (Corning Inc., Corning, NY, cat. 354248) for the first three passages. The 362531-283-R-J2-PDC and 782815-120-R-J1-PDC lines were cultured in 6C/Colon 1B media, which includes advanced DMEM/F-12 (Thermo Fisher Scientific, cat. 12634028), 10 mM HEPES (Thermo Fisher Scientific, cat. 15630080), 1X GlutaMAX supplement (Thermo Fisher Scientific, cat. 35050061), 0.1 mg/mL primocin (InvivoGen, San Diego, CA, cat. ant-pm-2), 10% defined fetal bovine serum, heat inactivated (HyClone Laboratories Inc., Logan, UT, cat. SH30070.03HI), 50% L-WRN conditioned media (ATCC, cat. CRL-3276), 1.25 mM N-Acetyl-L-cysteine (Sigma-Aldrich, cat. A9165), 10 mM nicotinamide (Sigma-Aldrich, cat. N0636), 1X B-27 supplement (Thermo Fisher Scientific, cat. 17504044), 1X N-2 supplement (Thermo Fisher Scientific, cat. 17502048), 50 ng/mL human EGF (Thermo Fisher Scientific, cat. PHG0311), and 10 microM Y-27632 dihydrochloride (Tocris Bioscience, cat. 1254). The K12877-001-R-J1-PDC line was cultured in 6I media, which includes all 6C/Colon 1B media plus 10 ng/mL human FGF-10 (PeproTech, cat. 100-26), 1 ng/mL human FGF-2 (PeproTech, cat. 100-18B), 1 µM prostaglandin E2 (Tocris Bioscience, cat. 2296), […] hydrocortisone (Sigma-Aldrich, cat. H4001), and […] bovine insulin (Sigma-Aldrich, cat. I6634). The K86415-001-R-J1-PDC line was cultured in 6D media, which includes all 6C/Colon 1B media components minus the L-WRN conditioned media. The 485176-168-R4-J1-PDC was cultured in PANC media, which includes all 6C/Colon 1B media plus 100 ng/mL human FGF-10 (PeproTech, cat. 100-26), 500 nM SB-431542 (Selleckchem, cat. S1067), and 10 nM gastrin (Tocris Bioscience, cat. 3006). […]
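Further: spheroids exposed to agents for seven days before readout.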
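Wherever viability, T/C is given: luminescence viability as percent of DMSO vehicle control wells.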

O=C(c1ccc(F)c(F)c1Nc1ccc(I)cc1F)N1CC(O)([C@@H]2CCCCN2)C1 + C=CC(=O)N1CCN(c2nc(OCC3CCCN3C)nc3c(F)c(-c4nc(N)cc(C)c4C(F)(F)F)c(Cl)cc23)C(C)C1
inactive: viability, T/C (second compound 0.00316 µM, first compound 0.00316 µM) 90.2% | viability, T/C (second compound 0.00316 µM, first compound 0.01 µM) 88.3% | viability, T/C (second compound 0.00316 µM, first compound 0.0316 µM) 77.2% | viability, T/C (second compound 0.00316 µM, first compound 0.1 µM) 41.4% | viability, T/C (second compound 0.00316 µM, first compound 0.316 µM) 32.6% | viability, T/C (second compound 0.00316 µM, first compound 1 µM) 18.4% | viability, T/C (second compound 0.01 µM, first compound 0.00316 µM) 102% | viability, T/C (second compound 0.01 µM, first compound 0.01 µM) 94% | viability, T/C (second compound 0.01 µM, first compound 0.0316 µM) 68.8% | viability, T/C (second compound 0.01 µM, first compound 0.1 µM) 52.3% | viability, T/C (second compound 0.01 µM, first compound 0.316 µM) 31.6% | viability, T/C (second compound 0.01 µM, first compound 1 µM) 17.7% | viability, T/C (second compound 0.0316 µM, first compound 0.00316 µM) 88.5% | viability, T/C (second compound 0.0316 µM, first compound 0.01 µM) 87.3% | viability, T/C (second compound 0.0316 µM, first compound 0.0316 µM) 81.3% | viability, T/C (second compound 0.0316 µM, first compound 0.1 µM) 56.1% | viability, T/C (second compound 0.0316 µM, first compound 0.316 µM) 28.9% | viability, T/C (second compound 0.0316 µM, first compound 1 µM) 20.7% | viability, T/C (second compound 0.1 µM, first compound 0.00316 µM) 95.6% | viability, T/C (second compound 0.1 µM, first compound 0.01 µM) 86.2% | viability, T/C (second compound 0.1 µM, first compound 0.0316 µM) 95.1% | viability, T/C (second compound 0.1 µM, first compound 0.1 µM) 66.3% | viability, T/C (second compound 0.1 µM, first compound 0.316 µM) 32.9% | viability, T/C (second compound 0.1 µM, first compound 1 µM) 21.1% | viability, T/C (second compound 0.316 µM, first compound 0.00316 µM) 101% | viability, T/C (second compound 0.316 µM, first compound 0.01 µM) 95.8% | viability, T/C (second compound 0.316 µM, first compound 0.0316 µM) 87.2% | viability, T/C (second compound 0.316 µM, first compound 0.1 µM) 57.8% | viability, T/C (second compound 0.316 µM, first compound 0.316 µM) 32.2% | viability, T/C (second compound 0.316 µM, first compound 1 µM) 17.9% | viability, T/C (second compound 1 µM, first compound 0.00316 µM) 98.3% | viability, T/C (second compound 1 µM, first compound 0.01 µM) 93.7% | viability, T/C (second compound 1 µM, first compound 0.0316 µM) 98.5% | viability, T/C (second compound 1 µM, first compound 0.1 µM) 55.7% | viability, T/C (second compound 1 µM, first compound 0.316 µM) 35.5% | viability, T/C (second compound 1 µM, first compound 1 µM) 18%
104 nM: IC50 (second compound 0.01 µM)
130 nM: IC50 (second compound 0.0316 µM)
141 nM: IC50 (second compound 1 µM)
145 nM: IC50 (second compound 0.316 µM)
80.8 nM: IC50 (second compound 0.00316 µM)
176 nM: IC50 (second compound 0.1 µM)
